Blank lines part the entries; values can stand above or below the compound they belong to.
Tests used:
micturition interval = experiment: 5-HT1A receptor agonist (8-OH-DPAT)-induced model of OAB, cystometry; format: in vivo, female SD rats; conditions: intravenous infusion 0.06 mg/kg/h, female SD rats
Description: Catheter implantations and cystometric investigations were performed based on the reported method [14]. Briefly, on the day before the cystometric experiment, female SD rats were initially anesthetized with pentobarbital (50 mg/kg ip). Catheters were inserted into the femoral vein, the dome of the stomach and the dome of the bladder. In the cystometric study, the bladder catheter was connected to an infusion pump and a pressure transducer (DX-312; Nihon Kohden Co., Tokyo, Japan) by three-way stopcock. Saline was infused into the bladder and femoral vein. After bladder pressure was stabilized, 8-OH-DPAT (0.06 mg/kg/h) was infused into the femoral vein instead of saline. Bladder pressure was monitored with a pressure transducer and a pressure amplifier (AP-601G; Nihon Kohden), and recorded on a pen recorder (WT-645G; Nihon Kohden). The following three micturition intervals (i.e., intervals between consecutive peaks of bladder pressure induced at the time of bladder content evacuation) were obtained: (1) basal micturition interval (intervals before 8-OH-DPAT administration), (2) pre-administration micturition interval, (intervals immediately before administration of E2110 or vehicle), and (3) post-administration micturition interval (intervals observed between 1 and 2 hr after administration of E2110 or vehicle). […] E2110 (0.03, 0.1 or 0.3 mg/kg) or vehicle was administered to four groups of eight conscious rats orally.
Data are expressed as mean ± standard error of mean (S.E.M). In the pharmacological study, the statistical significance of differences between the vehicle- and E2110-treated groups was tested using one-way analysis of variance (ANOVA) followed by Dunnett’s multiple comparison test. A probability (p) value of <0.05 (two-sided) was considered statistically significant. All statistical analyses were performed using the SAS software package version 8.1 or 8.2 (SAS Institute Japan Ltd., Tokyo, Japan).

rat 5-HT1A receptor = target: T1, rat 5-HT1A receptor (Rattus norvegicus, UniProt P19327); experiment: Binding assay in rat hippocampal membrane fraction ([3H]MPPF); conditions: saturation binding, rat hippocampal membranes, Scatchard plot
T1 construct: from tissue; host or cells: rat hippocampus, membrane (microsomal) fraction
T1 sequence (P19327 1-422): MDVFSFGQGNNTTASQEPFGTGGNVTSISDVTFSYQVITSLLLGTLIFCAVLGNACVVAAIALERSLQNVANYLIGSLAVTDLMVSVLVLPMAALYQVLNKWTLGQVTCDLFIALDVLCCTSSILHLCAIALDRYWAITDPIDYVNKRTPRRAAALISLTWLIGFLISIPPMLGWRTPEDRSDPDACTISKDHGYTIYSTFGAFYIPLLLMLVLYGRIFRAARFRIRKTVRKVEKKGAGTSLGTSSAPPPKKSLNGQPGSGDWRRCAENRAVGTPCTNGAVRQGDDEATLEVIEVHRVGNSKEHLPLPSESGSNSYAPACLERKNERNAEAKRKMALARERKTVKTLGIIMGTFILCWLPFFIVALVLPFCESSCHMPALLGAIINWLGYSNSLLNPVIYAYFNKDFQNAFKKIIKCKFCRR
Description: Rat hippocampal samples were weighed, homogenized in 10-fold volume of 50 mM Tris-HCl (pH 7.4) on an ice bath, and centrifuged (50,000×g, 4°C, 20 min). The precipitate was further homogenized in a 10-fold volume of 50 mM Tris-HCl (pH 7.4) on an ice bath and centrifuged (50,000×g, 4°C, 20 min). The obtained precipitate was homogenized in 50 mM Tris-HCl (pH 7.4) to render a concentration of 100 mg tissue eq./mL. The obtained microsomal fraction was stored as a receptor stock solution at -80°C until use. […] MPPF in a total 1-ml reaction volume at 25°C for 60 min. The reaction was terminated, and bound radioactivity was separated from free radioligands by filtering and washing three times with 3 ml of 50 mM Tris-HCl (pH 7.4). The radioactivity content of the filters in 5 ml of liquid scintillator (Atomlight; PerkinElmer) was counted by TR2500 scintillation counter (PerkinElmer Life & Analytical Sciences). The specific binding was determined as the difference between total and nonspecific binding, measured in the absence and presence of 100 µM 5-HT. Data were analyzed by Scatchard plot to estimate equilibrium constant (Kd) values. For the competition experiments, binding assays were carried out using 0.3 nM [^3H] […] MPPF according to the following equation:
Ki=IC50/1+[radioligand]/Kd (1)
where [radioligand] means the concentration of the radioligand used.

5-HT1A [1] = conditions: hippocampus, PET, isoflurane-anesthetized rats; cited from earlier work
5-HT1A [2] = conditions: hippocampal, unanesthetized rats; cited from earlier work

Compound: CCCN(CCC)C1CCc2cccc(O)c2C1 (stereo not shown) [8-OH-DPAT, 8-hydroxy-2-(di-n-propylamino)-tetralin, reference compound]
micturition interval versus basal level (micturition interval): markedly decreased

Kd (rat 5-HT1A receptor): 0.92 nM
Compound: COc1ccccc1N1CCN(CCN(C(=O)c2ccc(F)cc2)c2ccccn2)CC1 [[^3H] MPPF, [^3H] 2'-methoxyphenyl-(N-2'-pyridinyl)-p-fluoro-benzamidoethyipiperazine, reference compound]

Compound: CC(C)NCC(O)COc1cccc2[nH]ccc12 (stereo not shown) [pindolol]
in vivo ED50 for 5-HT1A RO (5-HT1A [1]): 5.6 mg/kg | ED50 for 5-HT1A RO, ex vivo autoradiography (5-HT1A [2]): 8.5 mg/kg
